{"source": "ChEMBL document CHEMBL3091286", "about": "(Bioorg Med Chem, 2013)", "test": "Displacement of [3H]-quipazine from 5-HT3 receptor in mouse/rat NG108-15 cells", "format": "cell-based"}
{"smiles": "O=C1c2cccc3c2[C@H](CCC3)CN1[C@@H]1CN2CCC1CC2", "note": "[PALONOSETRON]", "values": [{"measurement": "pKi", "result": 10.5}]}
